Experimental findings from patent US20030077653A1, “Method for the identification of active site protease inactivators” (The University of Georgia Research Foundation, Inc., priority 2000, published 2003) are described below.

For one experiment, the target named is Cathepsin B (Homo sapiens, UniProt P07858). As to the kind of experiment: Differential cleavage (selectivity) test. The conditions noted are these: pH 6.1, Z-ARR-AFC. It counts as biochemical. The method, then: (§1) In order to perform the assay, the vehicle (for Step VI) or inhibitor (for Step IX) were incubated with the appropriate substrate in the correct assay buffer and allowed to equilibrate. Subsequently, the protease was added, and the assay was allowed to incubate for an appropriate time. The concentrations used in this experiment were as follows: Vehicle was set up at 4×10^−5 M in final assay buffer; Inhibitor was set up at 3×10^−10 M in the final assay buffer. Accordingly, the dosages employed should be the minimal amount of vehicle or inhibitor necessary to induce inhibition. […] Substrates were set up based upon the preferred substrate for cleavage of the particular enzyme.
(§2) Positive controls were set up similarly as described for test controls, except that solvent was added in substitution for the inhibitor or vehicle (in a volume equal to the volume of inhibitor or vehicle addition). All of the inhibitors and vehicles could be dissolved in dimethylsulfoxide (DMSO), and therefore, this was the solvent of choice. Negative controls were set up by adding the inhibitor or vehicle and the preferred substrates in a tube without the protease. All potential non-proteolytic liberation of AFC was therefore controlled for in this tube (a feature which also insured stability of the AFC substrates, since these substrates will freely liberate AFC when unstable).
(§3) All controls were set up in triplicate, and experiments were repeated a minimum of five times.
(§4) Percent inhibition was calculated as: [formula]
(§5) In this preliminary test, we employed the following human-derived enzymes (with indicated mechanistic class): Cathepsin B (cysteine), Cathepsin L (cysteine), Cathepsin H (cysteine), Cathepsin D (aspartic) Trypsin (serine), the purified Taenia solium cysteine protease, and the Taenia solium crude mix. Cathepsin B was prepared in an assay buffer of 10 mM L-cysteine in 0.4 M Citrate buffer, pH 6. 1, using Z-ARR-AFC as the cleavage substrate. Cathepsin L was prepared in an assay buffer of 10 mM L-cysteine in 0.4 M Citrate buffer, pH 5.5, using Z-FR-AFC as the cleavage substrate. Cathepsin H was prepared in an assay buffer of 10 mM L-cysteine in 0.15 M PBS buffer, pH 6.8, using L- R-AFC as the cleavage substrate. Cathepsin D was prepared in an assay buffer of 0.15 M PBS, pH 7.1, using Z-RGFFP-AFC as the cleavage substrate. Trypsin was prepared in an assay buffer of 0.15 M PBS, pH 8.0, supplemented with 100 mM CaCl2 and with Z-R-AFC as the cleavage substrate. Enzyme was incubated so that it was at least 50 times less than the concentration of substrate in order to insure saturating conditions.

A further experiment deals with Cathepsin D (Homo sapiens, UniProt P07339). Put plainly: Differential cleavage (selectivity) test. The class given is biochemical. As to conditions: pH 7.1, Z-RGFFP-AFC. The protocol:
as §1, §2, §3, §4, §5

In a further experiment the target is T1, Cathepsin H (Homo sapiens, UniProt P09668).
T1 sequence (P09668 98-335): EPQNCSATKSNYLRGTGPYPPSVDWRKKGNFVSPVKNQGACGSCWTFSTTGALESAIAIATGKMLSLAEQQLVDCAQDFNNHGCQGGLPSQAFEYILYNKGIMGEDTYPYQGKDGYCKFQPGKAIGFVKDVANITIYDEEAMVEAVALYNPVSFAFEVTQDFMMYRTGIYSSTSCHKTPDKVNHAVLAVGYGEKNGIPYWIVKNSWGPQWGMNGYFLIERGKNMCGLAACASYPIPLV
As to the kind of experiment: Differential cleavage (selectivity) test. It counts as biochemical. The conditions noted are these: pH 6.8, L-R-AFC. The method, then:
as §1, §2, §3, §4, §5

For another experiment, the system named is Trypsin. As to the kind of experiment: Differential cleavage (selectivity) test. The class given is biochemical, human. As to conditions: pH 8.0, Z-R-AFC. The method, then: as §1, §2, §3, §4, §5
In experiment [1] the test system is purified Taenia solium cysteine protease. As to the kind of experiment: Protease inactivator inhibition assay (EC100, Ki; Step VII). It counts as biochemical. From the text:
Once the protease inactivators were synthesized in the organic laboratory, they were to be tested for the lowest efficacious concentrations at which they induced 100% inhibition of the target protease (EC100). The top percent cocktail that was employed in the final vehicle selection step of Step III was employed as the source of competition for the inhibitors. In this case, this was the […] which was comprised of Z-FR-AFC, Z-FAR-AFC, Z-AP-AFC, Z-AAK-AFC, and Z-VLR-AFC. The final result would be a ranking of transition state candidate protease inactivators with a high ranking directly correlating to a low ECIoo value. The following steps describe the assay:
Step A: Initial Screening. To set up the test control, each protease inactivator was first incubated with the 5% cocktail (which provided the final differentiation of vehicles in Step III). To begin with, the protease inactivator was incubated at a concentration of 3×10^−9M in 500 μl of assay buffer (0.2 M Citrate, pH 4.9 supplemented with 10mM L-cysteine). This concentration was determined, after a series of inhibitor dilutions identified, to be the best inhibitor concentration at which a differentiation in inhibitor potential could be noted. Next, a concentration equal to 4×10^−5M for each of the individual cocktail components, was added to the mix. The components were allowed to equilibrate for a period of 30 minutes. […]
Percent inhibition was calculated as: [formula] […]
Step C: Determination ofInhibitor Ki and mode of inhibition, and re-ranking of EC100 list with inhibitor Ki. Ki of each of the top ranked protease inactivators, based upon low EC100 values, was assessed next for the top 5 EC100 inhibitors.
In order to determine Ki, all of the high Vmax cocktail substrates were employed for Ki determination (since Ki of the inhibitor for the enzyme is the same regardless of the substrate). To insure the highest accuracy, Ki was to be determined upon a minimum of at least three of the high Kcat substrates. […]

SMILES strings stand for the structures. Starred links: 1 amine or outer side, 2 acyl side, 3 side chain; linkers in the order of their positions; H or OH if unused. Residues, ends and D or L forms follow the SMILES beside them. *: point of attachment. AFC = O=c1cc(C(F)(F)F)c2ccc(N*)cc2o1; Morpholide = C1CN(*)CCO1; Cbz = O=C(OCc1ccccc1)*; CO = O=C([*:1])[*:2]; CH2F = FC*

Sequence of Cathepsin D (P07339 65-412): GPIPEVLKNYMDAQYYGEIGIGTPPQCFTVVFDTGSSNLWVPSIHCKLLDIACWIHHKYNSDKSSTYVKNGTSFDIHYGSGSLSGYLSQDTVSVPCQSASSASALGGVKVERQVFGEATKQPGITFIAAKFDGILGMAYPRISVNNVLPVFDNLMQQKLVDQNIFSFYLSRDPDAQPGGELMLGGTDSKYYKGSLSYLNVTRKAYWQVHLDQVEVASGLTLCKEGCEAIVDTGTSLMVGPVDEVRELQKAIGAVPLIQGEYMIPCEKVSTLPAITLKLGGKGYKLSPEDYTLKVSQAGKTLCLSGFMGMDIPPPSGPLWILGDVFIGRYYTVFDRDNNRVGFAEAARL

With `CC(C)C[C@H](NC(=O)N1CCOCC1)C(=O)N[C@@H](Cc1ccc(O)cc1)C(=O)Nc1ccc2c(C(F)(F)F)cc(=O)oc2c1` [Mu-LY-AFC, Mu-Leu-Tyr-AFC] ({Morpholide-CO}-Leu-Tyr-{AFC}), the “Percent inhibition of Cathepsin B (cysteine)” value on Cathepsin B (vehicle 4×10^−5 M) is 0%. Moreover, the “Percent inhibition of Cathepsin D (aspartic)” value at Cathepsin D (vehicle 4×10^−5 M) is listed as 0%. The “Percent inhibition of Cathepsin H (cysteine)” value on Cathepsin H (vehicle 4×10^−5 M) came to 0%. Further, the “Percent inhibition of Trypsin (serine)” value in the experiment with Trypsin (vehicle 4×10^−5 M) is listed as 0%.

On to `CC(C)C[C@H](NC(=O)[C@H](CC(C)C)NC(=O)[C@H](CC(C)C)NC(=O)OCc1ccccc1)C(=O)CF` [Z-LLL-FMK, Z-Leu-Leu-Leu-fluoromethylketone] (Cbz-Leu-Leu-Leu-CH2F), for which the “Percent inhibition of Cathepsin B (cysteine)” value on Cathepsin B (inhibitor 3×10^−10 M) is on record as 0%. Also, the “Percent inhibition of Cathepsin D (aspartic)” value on Cathepsin D (inhibitor 3×10^−10 M) is 0%. Besides, the “Percent inhibition of Cathepsin H (cysteine)” value on Cathepsin H (inhibitor 3×10^−10 M) was found to be 0%. Besides, the “ranking of protease inactivators by inhibition / EC100” value in experiment [1] is listed as “top inhibitors”. In the experiment on Trypsin (inhibitor 3×10^−10 M), the “Percent inhibition of Trypsin (serine)” value is 0%.

`CC(C)C[C@H](NC(=O)OCc1ccccc1)C(=O)N[C@@H](CC(C)C)C(=O)N[C@@H](Cc1ccc(O)cc1)C(=O)CF` [Z-LLY-FMK, Z-Leu-Leu-Tyr-FMK] (Cbz-Leu-Leu-Tyr-CH2F): at Cathepsin B (inhibitor 3×10^−10 M), the “Percent inhibition of Cathepsin B (cysteine)” value worked out at 0%. Besides, the “Percent inhibition of Cathepsin D (aspartic)” value on Cathepsin D (inhibitor 3×10^−10 M) was found to be 0%. For the same compound, the “Percent inhibition of Cathepsin H (cysteine)” value at Cathepsin H (inhibitor 3×10^−10 M) was found to be 0%. The “ranking of protease inactivators by inhibition / EC100” value in experiment [1] is “top inhibitors”. The “Percent inhibition of Trypsin (serine)” value in the experiment with Trypsin (inhibitor 3×10^−10 M) is reported as 0%.
